Measurements: US20250092065A1, “2-(INDAZOL-5-YL)-6-(PIPERIDIN-4-YL)-1,7-NAPHTHYRIDINE DERIVATIVES AND RELATED COMPOUNDS AS MODULATORS FOR SPLICING NUCLEIC ACIDS AND FOR THE TREATMENT OF PROLIFERATIVE DISEASES” (REMIX THERAPEUTICS INC., priority 2022, published 2025)

What was measured:
HTT = assay: HiBiT protein abundance assay, HTT (K562 HiBiT knock-in); type: cell-based, human; conditions: HiBiT knock-in K562 cells, 24 hours, top dose 10 μM
Method in brief: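 K562 HiBiT knock-in, 24 h, 37 °C, top 10 μM final, 3-fold ×10, DMSO ≤0.25%. Lytic HiBiT luminescence; PC = parental K562, NC = DMSO; 4PL IC50.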

Target C = assay: RT-qPCR canonical junction panel assay, Target C mRNA; type: cell-based; conditions: Table 4, read-out: Target C IC50 (decrease in CJ mRNA levels)
Method in brief: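 IC50 is the concentration giving 50% CJ decrease, from a 4-parameter logistic fit of percent response; response derived from ΔΔCt against housekeeper and DMSO over a fixed ΔCt window, with canonical exon-junction qPCR in compound-treated K562 or A673 cells.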

IC50 (HTT)	IC50 (Target C)	SMILES
< 100 nM	100 to 1000 nM	C[C@H]1C[C@H](c2ccc3nc(-c4cc5cn(C)nc5c(F)c4O)ccc3n2)CCN1 (single isomer, unassigned) [Compound 356]
< 100 nM	100 to 1000 nM	Cc1c(O)c(-c2ccc3nc(N4CC[C@H](N[C@H]5C[C@H](F)C5)C4)ccc3n2)cc2cn(C)nc12 (single isomer, unassigned) [Compound 358]
< 100 nM	100 to 1000 nM	Cn1cc2cc(-c3ccc4nc(N5CC[C@@H](N)C5)ccc4n3)c(O)c(F)c2n1 (single isomer, unassigned) [Compound 362]
100 to 1000 nM	1000 to 10000 nM	CN[C@@H]1CCN(c2ccc3nc(-c4cc5cn(C)nc5c(C)c4O)ncc3n2)C1 (single isomer, unassigned) [Compound 368]
100 to 1000 nM	1000 to 10000 nM	CN[C@H]1CCN(c2ccc3nc(-c4cc5cn(C)nc5c(C)c4O)ncc3n2)C1 (single isomer, unassigned) [Compound 369]
< 100 nM	< 100 nM	Cc1nc2c(F)c(O)c(-c3ccc4nc(N5CC[C@H](NC6(CF)CC6)C5)ccc4n3)cc2o1 (single isomer, unassigned) [Compound 373]
< 100 nM	< 100 nM	Cc1nc2c(C)c(O)c(-c3ccc4nc(N5CC[C@H](NC6(CF)CC6)C5)ccc4n3)cc2o1 (single isomer, unassigned) [Compound 378]
< 100 nM	100 to 1000 nM	Cc1nc2c(C)c(O)c(-c3ccc4nc(N5CC[C@@H](NC6(CF)CC6)C5)ccc4n3)cc2o1 (single isomer, unassigned) [Compound 379]
< 100 nM	1000 to 10000 nM	Cn1cc2cc(-c3ncc4nc(N5CC[C@@H](N)C5)ccc4n3)c(O)c(F)c2n1 (single isomer, unassigned) [Compound 380]
< 100 nM	100 to 1000 nM	C[C@H]1C[C@@H](c2ccc3nc(-c4cc5cn(C)nc5c(F)c4O)ccc3n2)CCN1 (single isomer, unassigned) [Compound 383]
1000 to 10000 nM	> 10000 nM	Cn1cc2cc(-c3ccc4nc(C5CCNC[C@H]5O)ccc4n3)c(O)cc2n1 (single isomer, unassigned) [Compound 386]
< 100 nM	< 100 nM	Cn1cc2cc(-c3ccc4nc(N5CC[C@@H](NC(C)(C)C)C5)ccc4n3)c(O)c(F)c2n1 (single isomer, unassigned) [Compound 391]
< 100 nM	< 100 nM	Cn1cc2cc(-c3ccc4nc(N5CC[C@H](NC(C)(C)C)C5)ccc4n3)c(O)c(F)c2n1 (single isomer, unassigned) [Compound 392]
1000 to 10000 nM	> 10000 nM	Cc1c(O)c(-c2ncc3nc([C@@H]4CCNC4)ccc3n2)cc2cn(C)nc12 (single isomer, unassigned) [Compound 398]
< 100 nM	< 100 nM	Cc1nc2c(C)c(O)c(-c3ccc4nc(N5CC[C@@H](NC6CC6)C5)ncc4n3)cc2o1 (single isomer, unassigned) [Compound 432]
100 to 1000 nM	100 to 1000 nM	Cc1nc2cc(O)c(-c3ccc4nc(N5CC[C@@H](NC6CC6)C5)ncc4n3)cc2o1 (single isomer, unassigned) [Compound 434]
< 100 nM	100 to 1000 nM	Cc1nc2c(C)c(O)c(-c3ccc4cc(N5CC[C@@H](NC(C)(C)C)C5)ncc4n3)cc2o1 (single isomer, unassigned) [Compound 444]
100 to 1000 nM	1000 to 10000 nM	Cc1nc2c(C)c(O)c(-c3ccc4cc(N5CC[C@H](NC(C)(C)C)C5)ncc4n3)cc2o1 (single isomer, unassigned) [Compound 445]
< 100 nM	< 100 nM	Cc1nc2cc(O)c(-c3ccc4nc(N5CC[C@@H](NC6(CF)CC6)C5)ccc4n3)cc2o1 (single isomer, unassigned) [Compound 488]
< 100 nM	100 to 1000 nM	Cc1nc2cc(O)c(-c3ccc4nc(N5CC[C@H](NC6(CF)CC6)C5)ccc4n3)cc2o1 (single isomer, unassigned) [Compound 489]

IC50 (HTT)	IC50 (Target C)	SMILES
< 100 nM	< 100 nM	Cc1nc2c(F)c(O)c(-c3ccc4nc(N5CC[C@@H](NC6(CF)CC6)C5)ccc4n3)cc2o1 (single isomer, unassigned) [Compound 491]
< 100 nM	< 100 nM	Cn1cc2cc(-c3ccc4nc(N5CCC(NC6(CF)CC6)C5)ccc4n3)c(O)c(F)c2n1 (stereo in doubt) [Compound 353, 7-fluoro-5-{6-[(3R)-3-{[1-(fluoromethyl)cyclopropyl]amino}pyrrolidin-1-yl]-1,5-naphthyridin-2-yl}-2-methylindazol-6-ol]
< 100 nM	< 100 nM	Cn1cc2cc(-c3ccc4nc(N5CCC(NC6(CF)CC6)C5)ccc4n3)c(O)c(F)c2n1 (stereo in doubt) [Compound 357, 7-fluoro-5-{6-[(3S)-3-{[1-(fluoromethyl)cyclopropyl]amino}pyrrolidin-1-yl]-1,5-naphthyridin-2-yl}-2-methylindazol-6-ol]
< 100 nM	< 100 nM	Cn1cc2cc(-c3ccc4nc(N5CCC(N)C5)ccc4n3)c(O)c(F)c2n1 (stereo in doubt) [Compound 363, 5-{6-[(3R)-3-aminopyrrolidin-1-yl]-1,5-naphthyridin-2-yl}-7-fluoro-2-methylindazol-6-ol]
< 100 nM	< 100 nM	Cc1nc2c(F)c(O)c(-c3ccc4nc(N5CC[C@@H](N[C@H]6C[C@@H](F)C6)C5)ccc4n3)cc2o1 (stereo in doubt) [Compound 375]
< 100 nM	100 to 1000 nM	Cc1nc2c(C)c(O)c(-c3ccc4nc(N5CC[C@@H](N[C@H]6C[C@@H](F)C6)C5)ccc4n3)cc2o1 (stereo in doubt) [Compound 376]
< 100 nM	< 100 nM	Cc1nc2c(C)c(O)c(-c3ccc4nc(N5CC[C@H](N[C@H]6C[C@@H](F)C6)C5)ccc4n3)cc2o1 (stereo in doubt) [Compound 377]
100 to 1000 nM	1000 to 10000 nM	Cc1nc2cc(O)c(-c3ccc4nc(N5CC[C@@H](N[C@H]6C[C@@H](F)C6)C5)ccc4n3)cc2o1 (stereo in doubt) [Compound 395]
< 100 nM	100 to 1000 nM	Cc1nc2cc(O)c(-c3ccc4nc(N5CC[C@H](N[C@H]6C[C@@H](F)C6)C5)ccc4n3)cc2o1 (stereo in doubt) [Compound 396]
< 100 nM	< 100 nM	Cn1cc2cc(-c3ccc4nc(N5CC[C@@H](NC6(CF)CC6)C5)ccc4n3)c(O)cc2n1 [Compound 354, 5-{6-[(3R)-3-{[1-(fluoromethyl)cyclopropyl]amino}pyrrolidin-1-yl]-1,5-naphthyridin-2-yl}-2-methylindazol-6-ol]
< 100 nM	100 to 1000 nM	Cn1cc2cc(-c3ccc4nc(N5CC[C@H](NC6(CF)CC6)C5)ccc4n3)c(O)cc2n1 [Compound 355, 5-{6-[(3S)-3-{[1-(fluoromethyl)cyclopropyl]amino}pyrrolidin-1-yl]-1,5-naphthyridin-2-yl}-2-methylindazol-6-ol]
< 100 nM	< 100 nM	Cc1c(O)c(-c2ccc3nc(N4CCC(NC5(CF)CC5)C4)ccc3n2)cc2cn(C)nc12 (centres unmarked) [Compound 360, 5-[6-(3-{[1-(fluoromethyl)cyclopropyl]amino}pyrrolidin-1-yl)-1,5-naphthyridin-2-yl]-2,7-dimethylindazol-6-ol]
> 10000 nM	> 10000 nM	Cc1c(O)c(-c2cc(C(C)O)c3nc(N4CCNCC4)ccc3n2)cc2cn(C)nc12 (centres unmarked) [Compound 364, 5-[4-(1-hydroxyethyl)-6-(piperazin-1-yl)-1,5-naphthyridin-2-yl]-2,7-dimethylindazol-6-ol]
100 to 1000 nM	1000 to 10000 nM	Cc1c(O)c(-c2ncc3nc(C4CCNCC4)ccc3n2)cc2cn(C)nc12 [Compound 370, 2,7-dimethyl-5-[6-(piperidin-4-yl)pyrido[3,2-d]pyrimidin-2-yl]indazol-6-ol]
< 100 nM	< 100 nM	Cc1nc2c(F)c(O)c(-c3ccc4nc(N5CC[C@H](N[C@H]6C[C@@H](F)C6)C5)ccc4n3)cc2o1 [Compound 374, 4-fluoro-2-methyl-6-[6-(3-{[(1r,3r)-3-fluorocyclobutyl]amino}pyrrolidin-1-yl)-1,5-naphthyridin-2-yl]-1,3-benzoxazol-5-ol]
100 to 1000 nM	1000 to 10000 nM	CNC1CCN(c2ccc3nc(-c4cc(C#N)c5nc(C)cn5c4)ncc3n2)C1 (centres unmarked) [Compound 382, 2-methyl-6-{6-[3-(methylamino)pyrrolidin-1-yl]pyrido[3,2-d]pyrimidin-2-yl}imidazo[1,2-a]pyridine-8-carbonitrile]
1000 to 10000 nM	> 10000 nM	Cn1cc2cc(-c3ccc4nc(N5CC[C@H](NC6CC(F)(F)C6)C5)ccc4n3)c(O)cc2n1 [Compound 384]
< 100 nM	100 to 1000 nM	Cn1cc2cc(-c3ccc4nc(N5CC[C@@H](NC6CC(F)(F)C6)C5)ccc4n3)c(O)cc2n1 [Compound 385]
< 100 nM	< 100 nM	Cn1cc2cc(-c3ccc4nc(N5CCC(NCC6CC6)C5)ccc4n3)c(O)c(F)c2n1 (centres unmarked) [Compound 387, 5-(6-{3-[(cyclopropylmethyl)amino]pyrrolidin-1-yl}-1,5-naphthyridin-2-yl)-7-fluoro-2-methylindazol-6-ol]

SMILES	IC50 (HTT)	IC50 (Target C)
CC(C)NC1CCN(c2ccc3nc(-c4cc5cn(C)nc5c(F)c4O)ccc3n2)C1 (centres unmarked) [Compound 388, 7-fluoro-5-{6-[3-(isopropylamino)pyrrolidin-1-yl]-1,5-naphthyridin-2-yl}-2-methylindazol-6-ol]	< 100 nM	< 100 nM
